Like-named read-outs stand apart in the source and are kept apart here.

For series [1], the system named is Stage III-V gametocytes (blood stage P. falciparum parasites). The series can be described thus: In vitro drug activity on gametocytes (AlamarBlue viability assay). In kind it is cell-based, Plasmodium falciparum. The note with it: read-out: Gametocyte EC50. The method, boiled down: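 P. falciparum 3D7 stage III–V gametocytes (also HB3, Dd2), enriched by 50 mM N-acetylglucosamine and Percoll gradient, seeded at 20,000/well with compound for 72 h at 37° C, 5% CO2. AlamarBlue then added for 24 h; viability read as fluorescence (Ex 525, Em 598 nm).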
A general note: Alamar Blue is a resazurin reagent that responds to reducing activity.

A short description of series [2]: Solubility at pH 7.4. In kind it is physicochemical.
The nature of series [3]: PAMPA permeability. In kind it is in vitro ADME. As to conditions: PAMPA. On the technique in general: PAMPA measures passive passage across an artificial lipid membrane.
Series [4] relates to Asexual parasites of P. falciparum strain 3D7. Nature of the series: In vitro drug activity on asexual parasites (SYBR Green assay). In kind it is cell-based, Plasmodium falciparum. The method, boiled down: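 3D7 parasites at 0.5% parasitemia and 2% hematocrit were exposed to drugs (DMSO ≤0.5%) for 72 h under standard culture conditions, in duplicate. After freeze-thaw lysis, SYBR Green I lysis buffer was added for 30 min at room temperature, and fluorescence was read at 490/520 nm.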

In series [5] the target is mTOR (Homo sapiens, UniProt P42345). Nature of the series: mTOR activity (no method described). In kind it is biochemical.
Series [6] in a line: Microsomal stability (rat). In kind it is in vitro ADME. The note with it: rat microsomes.
Setting [7] is: P. falciparum stage III-V gametocytes, 72 h incubation, AlamarBlue.
Where [8] appears, read: P. falciparum 3D7 asexual parasites, 72 h, SYBR Green.

As usually defined, the EC50 is the concentration at which the effect is half-maximal. `CN(C)Cc1ccc(-c2ccc3ncc4ccc(=O)n(-c5ccc(N6CCOCC6)c(C#N)c5)c4c3c2)cc1` [Compound 5]: the EC50 in series [1] (setting [7]) turned out to be 508 nM. The “Sol @ pH 7.4 (ug/mL)” value in series [2] came to 7.03 ug/mL. For the same compound, the “PAMPA Permeability (×10^6 cm/s)” value in series [3] is 725.27 ×10^6 cm/s.

On to `C[S+]([O-])c1ccc(-n2c(=O)ccc3cnc4ccc(-c5ccc(N)nc5)cc4c32)cc1` (centres unmarked) [Compound 81], for which the half-maximal effective concentration (EC50) in series [1] (setting [7]) is 33.9 nM. Further, in series [2], the “Sol @ pH 7.4 (ug/mL)” value came out at 10 ug/mL. In addition, the “PAMPA Permeability (×10^6 cm/s)” value in series [3] was 5.1 ×10^6 cm/s.

For the compound `O=C(c1ccc(-n2c(=O)ccc3cnc4ccc(-c5ccc(Cl)cc5)cc4c32)cc1)N1C2CCCC1CC2` [Compound 137], the EC50 in series [1] came to 1000 nM; in series [4] it was 188 nM. Moreover, the mTOR in series [5] stood at 1.518 µM. Also, in series [6], the “Microsomal Stability (rat) T1/2” value was 1.6 min. In series [2], the “Sol @ pH 7.4” value was below 1.0 ug/mL.

For the compound `O=C(c1ccc(-n2c(=O)ccc3cnc4ccc(-c5ccc(Cl)cc5)cc4c32)cc1)N(C1CCCCC1)C1CC1` [Compound 142], the 50% effective concentration (EC50) in series [1] is 50000 nM; in series [4] it was 13800 nM. The compound further came in with a mTOR in series [5] of 46.17 µM. Further, the “Microsomal Stability (rat) T1/2” value in series [6] was 1.4 min. Besides, the “Sol @ pH 7.4” value in series [2] is listed as below 1.0 ug/mL.

With `O=C(c1ccc(-n2c(=O)ccc3c[n+]([O-])c4ccc(-c5ccc(Cl)cc5)cc4c32)cc1)N1CCOCC1` [Compound 148], the concentration for a half-maximal effect (EC50) in series [1] came to 4580 nM; in series [4] it was 601 nM. Also, the mTOR in series [5] came to 18.17 µM. Besides, in series [6], the “Microsomal Stability (rat) T1/2” value is on record as above 30.0 min. In addition, in series [2], the “Sol @ pH 7.4” value is reported as 21.8 ug/mL.

For `NC(=O)c1cc(-c2ccc3ncc4ccc(=O)n(-c5ccc(C(=O)N6CCOCC6)cc5)c4c3c2)ccc1Cl` [Compound 149], the results for the EC50 in series [1] and in series [4] were 840 nM and 409 nM, respectively. The same compound registered a mTOR in series [5] of 6.235 µM. The “Microsomal Stability (rat) T1/2” value in series [6] is on record as above 30.0 min. Besides, the “Sol @ pH 7.4” value in series [2] is given as 8.8 ug/mL.

With `CCNC(=O)c1cc(-c2ccc3ncc4ccc(=O)n(-c5ccc(C(=O)N6CCOCC6)cc5)c4c3c2)ccc1Cl` [Compound 150], the concentration for a half-maximal effect (EC50) in series [1] came out at 6230 nM; in series [4], 3820 nM. The same compound yielded a mTOR in series [5] of 7.873 µM. For the same compound, the “Microsomal Stability (rat) T1/2” value in series [6] stood at 2.4 min. Moreover, the “Sol @ pH 7.4” value in series [2] was determined as 3.9 ug/mL.

For the compound `O=C(c1ccc(-n2c(=O)ccc3cnc4ccc(-c5ccc(Cl)cc5)nc4c32)cc1)N1CCOCC1` [Compound 151], the EC50 turned out to be 52.7 nM in series [1] and 19.1 nM in series [4]. The same compound displayed a mTOR in series [5] of 3.72 µM. Further, in series [6], the “Microsomal Stability (rat) T1/2” value is 3.5 min. In addition, the “Sol @ pH 7.4” value in series [2] was below 1.0 ug/mL.

On to `COC(=O)c1cc(-c2ccc3ncc4ccc(=O)n(-c5ccc(C(=O)N6CCOCC6)cc5)c4c3c2)ccc1Cl` [Compound 152], for which the figures for the concentration for a half-maximal effect (EC50) in series [1] and in series [4] were 4040 nM and 2200 nM, respectively. This compound also returned a mTOR in series [5] of 0.7962 µM. In series [6], the “Microsomal Stability (rat) T1/2” value was 3.3 min. The “Sol @ pH 7.4” value in series [2] is on record as below 1.0 ug/mL.

Regarding `CCN(CC)Cc1ccc(-c2ccc3ncc4ccc(=O)n(-c5ccc(C(=O)N6CCOCC6)cc5)c4c3c2)cc1` [Compound 175], the EC50 was determined as 1620 nM in series [1] and 731 nM in series [4]. The mTOR in series [5] came out at 11.78 µM. The “Microsomal Stability (rat) T1/2” value in series [6] is above 30.00 min. In addition, in series [2], the “Sol @ pH 7.4” value was 66.62 ug/mL.

Turning to `O=C(c1ccc(-n2c(=O)ccc3cnc4ccc(-c5ccc(CCN6CCOCC6)cc5)cc4c32)cc1)N1CCOCC1` [Compound 182], the EC50 came to 1480 nM in series [1] and 459 nM in series [4]. The same compound yielded a mTOR in series [5] of 1.439 µM. Also, the “Microsomal Stability (rat) T1/2” value in series [6] was 10.8 min. The “Sol @ pH 7.4” value in series [2] is 1.1 ug/mL.

Turning to `O=C(c1ccc(-n2c(=O)ccc3cnc4ccc(Br)cc4c32)cc1)N1CCOCC1` [Compound 337], the concentration for a half-maximal effect (EC50) in series [1] is 6230 nM; in series [4], 1570 nM. For the same compound, the mTOR in series [5] was found to be 3.229 µM. In series [6], the “Microsomal Stability (rat) T1/2” value is recorded as above 30.0 min. In addition, in series [2], the “Sol @ pH 7.4” value was above 68.0 ug/mL.

Turning to `CN(C)Cc1ccc(-c2ccc3ncc4ccc(=O)n(-c5ccc6c(c5)CCC(=O)N6C)c4c3c2)cc1` [Compound 358], the EC50 in series [1] (setting [7]) was 2180 nM; in series [4] (setting [8]), 878 nM. For the same compound, the “Sol @ pH 7.4 (ug/mL)” value in series [2] is reported as above 72.00 ug/mL. For the same compound, the “PAMPA Permeability (×10^6 cm/s)” value in series [3] is 1209.2 ×10^6 cm/s.

On to `CCN(CC)Cc1ccc(-c2ccc3ncc4ccc(=O)n(-c5ccc6c(c5)CNC6=O)c4c3c2)cc1` [Compound 363], for which the concentration giving a half-maximal response (EC50) in series [1] (setting [7]) was found to be 860 nM; in series [4] (setting [8]), 450 nM. Further, the “Sol @ pH 7.4 (ug/mL)” value in series [2] is on record as 57.74 ug/mL. The “PAMPA Permeability (×10^6 cm/s)” value in series [3] is 8.76 ×10^6 cm/s.

On to `N#Cc1cccc(-n2c(=O)[nH]c3cnc4ccc(-c5ccc(Cl)cc5)cc4c32)c1` [Compound 397], for which the concentration giving a half-maximal response (EC50) in series [1] turned out to be 232 nM; in series [4] it was 268 nM. The mTOR entry in series [5] was “Inactive”. Further, the “Microsomal Stability (rat) T1/2” value in series [6] is above 30.0 min. Also, the “Sol @ pH 7.4” value in series [2] is below 1.0 ug/mL.

With `Cn1c(=O)n(-c2cccc(C#N)c2)c2c3cc(-c4ccc(Cl)cc4)ccc3ncc21` [Compound 398], the half-maximal effective concentration (EC50) in series [1] turned out to be 194 nM; in series [4] it was 105 nM. In series [5], this compound showed a mTOR of 2.471 µM. The “Microsomal Stability (rat) T1/2” value in series [6] is on record as above 30.0 min. The “Sol @ pH 7.4” value in series [2] was below 1.0 ug/mL.

On to `Cc1ccc(C#N)cc1-n1c(=O)[nH]c2cnc3ccc(-c4ccc(Cl)cc4)cc3c21` [Compound 399], for which the half-maximal effective concentration (EC50) in series [1] is 522 nM; in series [4], 219 nM. The compound also had a mTOR in series [5] of 100 µM. The “Microsomal Stability (rat) T1/2” value in series [6] was above 30.0 min. The “Sol @ pH 7.4” value in series [2] was below 1.0 ug/mL.

With `COc1cc(-c2ccc3ncc4c(c3c2)n(-c2cccc(C#N)c2)c(=O)n4C)ccc1Cl` [Compound 403], the figures for the EC50 in series [1] and in series [4] were 262 nM and 125 nM, respectively. This compound had a mTOR in series [5] of 100 µM. In series [6], the “Microsomal Stability (rat) T1/2” value is above 30.0 min. In series [2], the “Sol @ pH 7.4” value was 3.1 ug/mL.

`CC(=O)n1c(=O)n(-c2cccc(C#N)c2)c2c3cc(-c4ccc(Cl)cc4)ccc3ncc21` [Compound 405]: the EC50 came to 666 nM in series [1] and 298 nM in series [4]. In addition, the mTOR in series [5] was found to be 100 µM. Also, the “Microsomal Stability (rat) T1/2” value in series [6] is 2.4 min. In addition, in series [2], the “Sol @ pH 7.4” value was below 0.1 ug/mL.

As for `Cn1c(=O)n(-c2ccc(N3CCNCC3)c(C#N)c2)c2c3cc(-c4ccc(Cl)cc4)ccc3ncc21` [Compound 406], the half-maximal effective concentration (EC50) is 13.1 nM in series [1] and 8.46 nM in series [4]. The compound further had a mTOR in series [5] of 0.2165 µM. In addition, the “Microsomal Stability (rat) T1/2” value in series [6] amounted to 19.4 min. Moreover, the “Sol @ pH 7.4” value in series [2] is recorded as below 1 ug/mL.

Regarding `COc1cc(-c2ccc3ncc4c(c3c2)n(-c2cc(C#N)ccc2C)c(=O)n4C)ccc1Cl` [Compound 407], the half-maximal effective concentration (EC50) is 104 nM in series [1] and 52.4 nM in series [4]. The mTOR in series [5] stood at 50 µM. The “Microsomal Stability (rat) T1/2” value in series [6] is above 30 min. For the same compound, the “Sol @ pH 7.4” value in series [2] is on record as below 1 ug/mL.

For the compound `CCn1c(=O)n(-c2cccc(C#N)c2)c2c3cc(-c4ccc(Cl)cc4)ccc3ncc21` [Compound 440], the results for the concentration giving a half-maximal response (EC50) in series [1] and in series [4] were 2180 nM and 787 nM, respectively. The mTOR in series [5] worked out at 100 µM. Besides, the “Microsomal Stability (rat) T1/2” value in series [6] was above 30.0 min. The “Sol @ pH 7.4” value in series [2] is recorded as below 1.0 ug/mL.

Values taken from patent publication US11753408B2, “Compounds and method for blocking transmission of malarial parasite” (The United States of America, as represented by the …, priority 2016, dated 2023).
